Results reported in US12187728B2 (Raze Therapeutics, Inc., priority 2015, dated 2025).

Molecular target: T1, Human MTHFD2 (Homo sapiens, UniProt P13995)
T1 construct: residues 36-350 in Uniport ID P13995; His6 (N); made in house; host or cells: E. coli
T1 sequence (P13995 36-350): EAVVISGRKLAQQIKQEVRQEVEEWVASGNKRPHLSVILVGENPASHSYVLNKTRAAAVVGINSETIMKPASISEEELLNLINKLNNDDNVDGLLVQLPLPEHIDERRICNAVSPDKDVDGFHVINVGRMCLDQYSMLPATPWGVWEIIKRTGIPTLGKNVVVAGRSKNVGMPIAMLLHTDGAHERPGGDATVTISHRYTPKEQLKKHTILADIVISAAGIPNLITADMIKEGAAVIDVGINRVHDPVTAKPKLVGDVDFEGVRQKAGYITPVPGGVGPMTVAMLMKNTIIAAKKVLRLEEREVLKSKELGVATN
Assay: MTHFD2 Activity Assay (dehydrogenase activity, diaphorase/resazurin coupled fluorescence)
Format: biochemical
Details: inhibitory activity (IC50 and/or binding constant); 0.2 nM MTHFD2, 11 concentrations
Method in brief: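 His6-tagged MTHFD2 (res. 36-350), E. coli-expressed, at 0.2 nM preincubated with compound 15 min in Hepes pH 8.0/MgCl2/KH2PO4 buffer; 70 μM CH2-THF, 1 mM NAD+ added with resazurin/diaphorase, 30 min, EDTA stop. Resorufin fluorescence (ex 525/em 598); IC50 from 11-point 4-parameter fit.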

Row | IC50 [nM] | Structure (SMILES)
1 | 10 to 1000 | Cn1c(N[C@H]2CCC[C@@H](O)C2)nc2c1c(=O)n(Cc1ccc(Cl)c(Cl)c1)c(=O)n2C (single isomer, unassigned) [Example 79, 1-(3,4-dichlorobenzyl)-8-((1S,3R)-3-hydroxycyclohexylamino)-3,7-dimethyl-1H-purine-2,6(3H,7H)-dione or 1-(3,4-dichlorobenzyl)-8-((1R,3S)-3-hydroxycyclohexylamino)-3,7-dimethyl-1H-purine-2,6(3H,7H)-dione]
2 | 10 to 1000 | Cn1c(N[C@H]2CCC(=O)NC2)nc2c1c(=O)n(Cc1ccc(Cl)c(Cl)c1)c(=O)n2C (single isomer, unassigned) [Example 83, (5)-1-(3,4-dichlorobenzyl)-3,7-dimethyl-8-(6-oxopiperidin-3-ylamino)-1H-purine-2,6(3H,7H)-dione or (R)-1-(3,4-dichlorobenzyl)-3,7-dimethyl-8-(6-oxopiperidin-3-ylamino)-1H-purine-2,6(3H,7H)-dione]
3 | 10 to 1000 | Cn1c(Nc2cnccn2)nc2c1c(=O)n(Cc1ccc(Cl)c(Cl)c1)c(=O)n2C [Example 126, 1-(3,4-dichlorobenzyl)-3,7-dimethyl-8-(pyrazin-2-ylamino)-1H-purine-2,6(3H,7H)-dione]
4 | 10 to 1000 | Cn1c(N[C@@H]2CCC[C@H]2O)nc2c1c(=O)n(Cc1ccc(Cl)c(Cl)c1)c(=O)n2C [Example 93, 1-[(3,4-dichlorophenyl)methyl]-8-{[(1R,2R)-2-hydroxycyclopentyl]amino}-3,7-dimethyl-2,3,6,7-tetrahydro-1H-purine-2,6-dione]
5 | 10 to 1000 | C[C@@H](CCO)Nc1nc2c(c(=O)n(Cc3ccc(Cl)c(Cl)c3)c(=O)n2C)n1C [Example 32, 1-[(3,4-dichlorophenyl)methyl]-8-{[(2S)-4-hydroxybutan-2-yl]amino}-3,7-dimethyl-2,3,6,7-tetrahydro-1H-purine-2,6-dione]
6 | 10 to 1000 | Cn1c(N[C@H]2CCC[C@@H](O)C2)nc2c1c(=O)n(Cc1ccc(Cl)c(Cl)c1)c(=O)n2C (racemic) [Example 173, (±)-1-(3,4-dichlorobenzyl)-8-((cis)-3-hydroxycyclohexylamino)-3,7-dimethyl-1H-purine-2,6(3H,7H)-dione]
7 | 10 to 1000 | Cn1c(=O)n(Cc2ccc(Cl)c(Cl)c2)c(=O)c2c1nc(NC1CCCC(C(=O)O)C1)n2CC(N)=O (stereo not drawn) [Example 306, 3-(7-(2-amino-2-oxoethyl)-1-(3,4-dichlorobenzyl)-3-methyl-2,6-dioxo-2,3,6,7-tetrahydro-1H-purin-8-ylamino)cyclohexanecarboxylic acid]

Further lines, the compound ahead of its results:

Row | Structure (SMILES) | IC50 [nM]
8 | Cn1c(Nc2cccc([C@H]3C[C@H]3C(=O)O)n2)nc2c1c(=O)n(Cc1ccc(Cl)c(Cl)c1)c(=O)n2C (racemic) [Example 357, (±)-cis-2-(6-((1-(3,4-dichlorobenzyl)-3,7-dimethyl-2,6-dioxo-2,3,6,7-tetrahydro-1H-purin-8-yl)amino)pyridin-2-yl)cyclopropanecarboxylic acid] | 10 to 1000
9 | Cn1c(-n2cc(N)cn2)nc2c1c(=O)n(Cc1ccc(Cl)c(Cl)c1)c(=O)n2C [Example 136] | 10 to 1000
10 | Cn1c(Nc2ccnc([C@@H]3C[C@H]3CO)c2)nc2c1c(=O)n(Cc1ccc(Cl)c(Cl)c1)c(=O)n2C (single isomer, unassigned) [Example 337, 1-(3,4-dichlorobenzyl)-8-((2-((1R,2R)-2-(hydroxymethyl)cyclopropyl)pyridin-4-yl)amino)-3,7-dimethyl-1H-purine-2,6(3H,7H)-dione or 1-(3,4-dichlorobenzyl)-8-((2-((1S,2S)-2-(hydroxymethyl)cyclopropyl)pyridin-4-yl)amino)-3,7-dimethyl-1H-purine-2,6(3H,7H)-dione] | 1000 to 5000
11 | Cn1c([C@H](N)Cc2ccncc2)nc2c1c(=O)n(Cc1cc3c(Cl)cccc3[nH]1)c(=O)n2C [Example 447, (R)-8-(1-amino-2-(pyridin-4-yl)ethyl)-1-((4-chloro-1H-indol-2-yl)methyl)-3,7-dimethyl-1H-purine-2,6(3H,7H)-dione] | 10 to 1000
12 | Cn1c(Nc2cccc(C(=O)O)c2)nc2c1c(=O)n(Cc1ccc(Cl)c(Cl)c1)c(=O)n2C [Example 286, 3-((1-(3,4-dichlorobenzyl)-3,7-dimethyl-2,6-dioxo-2,3,6,7-tetrahydro-1H-purin-8-yl)amino)benzoic acid] | 10 to 1000
13 | Cn1c(Nc2ccc(CO)nc2)nc2c1c(=O)n(Cc1cc3c(Cl)cccc3[nH]1)c(=O)n2C [Example 407, 1-((4-chloro-1H-indol-2-yl)methyl)-8-(6-(hydroxymethyl)pyridin-3-ylamino)-3,7-dimethyl-1H-purine-2,6(3H,7H)-dione] | 10 to 1000
14 | COc1ccc2[nH]c(Cn3c(=O)c4c(nc(N[C@H]5CC[C@@H](O)C5)n4C)n(C)c3=O)cc2c1 [Example 182, 8-((1S,3R)-3-hydroxycyclopentylamino)-1-((5-methoxy-1H-indol-2-yl)methyl)-3,7-dimethyl-1H-purine-2,6(3H,7H)-dione] | 10 to 1000
15 | Cc1ccc2[nH]c(Cn3c(=O)c4c(nc(Nc5ncn[nH]5)n4C)n(C)c3=O)cc2c1 [Example 202, 8-(1H-1,2,4-triazol-5-ylamino)-3,7-dimethyl-1-((5-methyl-1H-indol-2-yl)methyl)-1H-purine-2,6(3H,7H)-dione] | 1000 to 5000
16 | Cn1c(CCN2CCOCC2)nc2c1c(=O)n(Cc1cc3cc(Cl)ccc3[nH]1)c(=O)n2C [Example 229, 1-((5-chloro-1H-indol-2-yl)methyl)-3,7-dimethyl-8-(2-morpholinoethyl)-1H-purine-2,6(3H,7H)-dione] | 10 to 1000
17 | Cn1c(NC2(CO)CCCC2)nc2c1c(=O)n(Cc1ccc(C(F)(F)F)cc1)c(=O)n2C [Example 128, 8-(1-(hydroxymethyl)cyclopentylamino)-3,7-dimethyl-1-(4-(trifluoromethyl)benzyl)-1H-purine-2,6(3H,7H)-dione] | > 10000
18 | Cn1c(=O)n(Cc2ccc(Cl)c(Cl)c2)c(=O)c2[nH]cnc21 [Example 251, 1-(3,4-dichlorobenzyl)-3-methyl-1H-purine-2,6(3H,7H)-dione] | > 10000
